Assay: logP by HPLC on reversed-phase columns (EEC Directive 79/831 Annex V.A8)
Type: physicochemical
Conditions: for log p [a]: pH 2.3
Method: The logP values were measured in accordance with EEC Directive 79/831 Annex V.A8 by HPLC (High Performance Liquid Chromatography) on reversed-phase columns (C 18) using the methods below:
[a] The determination was carried out in the acidic range at pH 2.3 using the mobile phases 0.1% aqueous phosphoric acid and acetronitrile linear gradient from 10% acetonitrile to 95% acetronitrile. [b] The LC-MS determination in the acid range was carried out at pH 2.7 using the mobile phases 0.1% aqueous formic acid and acetonitrile (contains 0.1% formic acid) linear gradient from 10% acetonitrile to 95% acetonitrile. [c] The LC-MS determination in the neutral range was carried out at pH 7.8 using the mobile phases 0.001 molar aqueous ammonium bicarbonate solution and acetonitrile linear gradient from 10% acetonitrile to 95% acetonitrile.

Compound	log p [b] (pH 2.7)	log p [c] (pH 7.8)	further results
CCCCCCC1COC(c2cccc(Nc3ncc(Cl)c(NC4CC4)n3)c2)O1 (stereo not drawn) [Example 38]	4.14	5.29	
Fc1ccc(Nc2ncc(Cl)c(NC3CC3)n2)cc1C1OCCCO1 [Example 144]			log p (pH 2.7): 1.87; log p (pH 7.8): 3.02
CC1COC(c2cccc(Nc3ncc(Cl)c(NC4CCC4)n3)c2)O1 (stereo not drawn) [Example 86]	2.2	3.68	
CC1(C)OC(c2cccc(Nc3ncc(Cl)c(NC4CC4)n3)c2)OC1(C)C [Example 158]			log p (pH 2.7): 2.78; log p (pH 7.8): 4.13
Cc1cnc(Nc2cccc(C=O)c2)nc1NC1CC1 [3-{[4-(Cyclopropylamino)-5-methylpyrimidin-2-yl]amino}benzenecarbaldehyde]			chromatographic logP (pH 2.7, logP (pH 2.7)): 1.13
CC1CC(C(F)(F)F)OC(c2cccc(Nc3ncc(Cl)c(NC4CC4)n3)c2)O1 (stereo not drawn) [Example 124]	2.84[b]		
Cc1cnc(Nc2cccc(C3OCCO3)c2)nc1NC1CC1 [Example 58]	1.21[b]	2.25	log p [a]: 1.21
O=Cc1cccc(Nc2ncc(Cl)c(NCC(F)(F)F)n2)c1 [3-({5-Chloro-4-[(2,2,2-trifluoroethyl)amino]pyrimidin-2-yl}amino)benzenecarbaldehyde]			chromatographic logP (pH 2.7, logP (pH 2.7)): 2.46
CC1OC(c2cccc(Nc3ncc(Br)c(NC4CCC4)n3)c2)OC1C (stereo not drawn) [Example 17]	2.67	4.12	
COCC1COC(c2cccc(Nc3ncc(Br)c(NC4CC4C)n3)c2)O1 (stereo not drawn) [Example 132]			log p (pH 2.7): 2.19; log p (pH 7.8): 3.52
CC(=O)c1cccc(Nc2ncc(C(F)(F)F)c(NC3CC3)n2)c1 [1-(3-{[4-(Cyclopropylamino)-5-(trifluoromethyl)pyrimidin-2-yl]amino}phenyl)ethanone]			chromatographic logP (pH 2.7, logP (pH 2.7)): 2.72
O=Cc1cccc(Nc2ncc(Br)c(NC3CCC3)n2)c1 [3-{[5-Bromo-4-(cyclobutylamino)pyrimidin-2-yl]amino}benzenecarbaldehyde]			chromatographic logP (pH 2.7, logP (pH 2.7)): 2.35
Clc1cnc(Nc2cccc(C3OCCCCO3)c2)nc1NC1CC1 [Example 126]	2.14	3.48	
O=[N+]([O-])c1ccccc1C1COC(c2cccc(Nc3ncc(Cl)c(NC4CC4)n3)c2)O1 (stereo not drawn) [Example 37]	2.89	4	
Cc1cnc(Nc2cccc(C3OCCCO3)c2)nc1NC1CC1 [Example 55]	1.28[b]	2.37	log p [a]: 1.32
O=Cc1cccc(Nc2ncc(C(F)(F)F)c(NC3CC3)n2)c1 [3-{[4-(Cyclopropylamino)-5-(trifluoromethyl)pyrimidin-2-yl]amino}benzenecarbaldehyde]			chromatographic logP (pH 2.7, logP (pH 2.7)): 2.73
CC(=O)c1cccc(Nc2ncc(C(F)(F)F)c(NC3CCC3)n2)c1 [1-(3-{[4-(Cyclobutylamino)-5-(trifluoromethyl)pyrimidin-2-yl]amino}phenyl)ethanone]			chromatographic logP (pH 2.7, logP (pH 2.7)): 3.24
Clc1cnc(Nc2cccc(C3OCC(CN4CCOCC4)O3)c2)nc1NC1CC1 (stereo not drawn) [Example 41]		2.54[c]	
CN(c1nc(Nc2cccc(C=O)c2)ncc1Cl)C1CC1 [3-({5-Chloro-4-[cyclopropyl(methyl)amino]pyrimidin-2-yl}amino)benzenecarbaldehyde]			chromatographic logP (pH 2.7, logP (pH 2.7)): 2.84
Clc1cnc(Nc2cccc(C3OC4COCC4O3)c2)nc1NC1CCC1 (stereo not drawn) [Example 118]	1.77	3.04	

Compound	log p [b] (pH 2.7)	log p [c] (pH 7.8)	further results
CC(C)(C)C1CCOC(c2cccc(Nc3ncc(Cl)c(NC4CC4)n3)c2)O1 (stereo not drawn) [Example 121]	3.16[b]		
C=CCOCC1COC(c2cccc(Nc3ncc(Br)c(NC4CCC4)n3)c2)O1 (stereo not drawn) [Example 117]	2.77	4.24	
CCCOCC1COC(c2cccc(Nc3ncc(Cl)c(NC4CC4)n3)c2)O1 (stereo not drawn) [Example 96]	2.51	3.79	
Fc1ccc(Nc2ncc(Br)c(NC3CCC3)n2)cc1C1OCCCO1 [Example 146]			log p (pH 2.7): 2.3; log p (pH 7.8): 3.75
CC1CCC2OC(c3cccc(Nc4ncc(Cl)c(NC5CC5)n4)c3)OC12 (stereo not drawn) [Example 157]			log p (pH 2.7): 2.79; log p (pH 7.8): 4.1
Clc1cnc(Nc2cccc(C3SCCS3)c2)nc1NC1CC1 [Example 47]	2.42	3.68	
FC(F)CNc1nc(Nc2cccc(C3OCCO3)c2)ncc1Cl [Example 60]	1.88[b]	2.55	log p [a]: 1.49
C=C1COC(c2cccc(Nc3ncc(Br)c(NC4CCC4)n3)c2)OC1 [Example 82]	2.43	3.85	
Clc1cnc(Nc2cccc(C3OCC(Cl)CO3)c2)nc1NC1CC1 (stereo not drawn) [Example 99]	2.15	3.33	
C=CCOCC1COC(c2cccc(Nc3ncc(Cl)c(NC4CC4)n3)c2)O1 (stereo not drawn) [Example 34]	2.25	3.39	
COCC1COC(c2cccc(Nc3ncc(C(F)(F)F)c(NC4CCC4)n3)c2)O1 (stereo not drawn) [Example 106]	3.22	3.77	
COC(OC)c1cccc(Nc2ncc(Cl)c(NC3CC3)n2)c1 [Example 63]	1.87	3.07	
CC1(C)COC(c2cccc(Nc3ncc(Br)c(NC4CCC4)n3)c2)OC1 [Example 21]	3	4.51	
COCC1COC(c2cccc(Nc3ncc(Br)c(NC4CC4)n3)c2)O1 (stereo not drawn) [Example 104]	1.9	3.02	
CCC1COC(c2cccc(Nc3ncc(Cl)c(NC4CCC4)n3)c2)O1 (stereo not drawn) [Example 90]	2.65	4.18	
C=C1COC(c2cccc(Nc3ncc(Br)c(NC4CC4)n3)c2)OC1 [Example 81]	2.1	3.27	
O=Cc1cccc(Nc2ncc(C(F)(F)F)c(NC3CCC3)n2)c1 [3-{[4-(Cyclobutylamino)-5-(trifluoromethyl)pyrimidin-2-yl]amino}benzenecarbaldehyde]			chromatographic logP (pH 2.7, logP (pH 2.7)): 3.26
C=CCOCC1COC(c2cccc(Nc3ncc(C(F)(F)F)c(NC4CC4)n3)c2)O1 (stereo not drawn) [Example 108]	3.35	3.79	
CC(C)Nc1nc(Nc2cccc(C=O)c2)ncc1Cl [3-{[5-Chloro-4-(isopropylamino)pyrimidin-2-yl]amino}benzaldehyde]			chromatographic logP (pH 2.7, logP (pH 2.7)): 1.86
CC1(C)COC(C)(c2cccc(Nc3ncc(Cl)c(NC4CC4)n3)c2)OC1 [Example 71]	2.99	4.35	

Compound	log p [b] (pH 2.7)	log p [c] (pH 7.8)	further results
CC(=O)c1cccc(Nc2ncc(Cl)c(NC3CC3)n2)c1 [1-(3-{[5-Chloro-4-(cyclopropylamino)pyrimidin-2-yl]amino}phenyl)ethanone]			chromatographic logP (pH 2.7, logP (pH 2.7)): 1.75
CC1CSC(c2cccc(Nc3ncc(Cl)c(NC4CC4)n3)c2)S1 (stereo not drawn) [Example 161]			log p (pH 2.7): 2.79; log p (pH 7.8): 4.14
FC(F)(F)CNc1nc(Nc2cccc(C3OCCO3)c2)ncc1Cl [Example 45]	2.35	2.73	
2-Chloro-{[5-chloro-4-(cyclopropylamino)pyrimidin-2-yl]amino}benzenecarbaldehyde			logP (pH 2.7) (pH 2.7, LC-MS, 0.1% aqueous formic acid/acetonitrile): 2.68
Brc1cnc(Nc2cccc(C3OCCCO3)c2)nc1NC1CCC1 [Example 151]			log p (pH 2.7): 2.11; log p (pH 7.8): 3.54
Fc1ccc(Nc2ncc(C(F)(F)F)c(NC3CC3)n2)cc1C1OCCCO1 [Example 147]			log p (pH 2.7): 2.27; log p (pH 7.8): 3.40
COc1ccc(Nc2ncc(Br)c(NC3CCC3)n2)cc1C1OCCO1 [Example 139]			log p (pH 2.7): 1.79; log p (pH 7.8): 3.29
Clc1cnc(Nc2cccc(C3SCCCS3)c2)nc1NC1CC1 [Example 35, 5-Chloro-N^4-cyclopropyl-N^2-[3-(1,3-dithian-2-yl)phenyl]pyrimidine-2,4-diamine]			chromatographic logP (pH 2.7, log p [b]): 2.44; chromatographic logP (pH 2.7, logP (pH 2.7)): 2.44; chromatographic logP (pH 7.8, log p [c]): 3.65
CC1OC(c2cccc(Nc3ncc(Cl)c(NC4CC4)n3)c2)OC1C (stereo not drawn) [Example 3]	2.2[b]		
Brc1cnc(Nc2cccc(C3OCCO3)c2)nc1NC1CCC1 [Example 20]	2.05	3.39	
CCC1COC(c2cccc(Nc3ncc(Br)c(NC4CC4)n3)c2)O1 (stereo not drawn) [Example 150]			log p (pH 7.8): 3.68[c]
Clc1cnc(Nc2cccc(C3OCCS3)c2)nc1NC1CC1 (stereo not drawn) [Example 46, 5-Chloro-N^4-cyclopropyl-N^2-[3-(1,3-oxathiolan-2-yl)phenyl]pyrimidine-2,4-diamine]			chromatographic logP (pH 2.7, log p [b]): 2.05; chromatographic logP (pH 2.7, logP (pH 2.7)): 2.05; chromatographic logP (pH 7.8, log p [c]): 3.26
CC(=O)c1cccc(Nc2ncc(C(F)(F)F)c(NCC3CC3)n2)c1 [1-[3-({4-[(Cyclopropylmethyl)amino]-5-(trifluoromethyl)pyrimidin-2-yl}amino)phenyl]-ethanone]			chromatographic logP (pH 2.7, logP (pH 2.7)): 2.77
COCC(C)Nc1nc(Nc2cccc(C3OCCCO3)c2)ncc1Cl (stereo not drawn) [Example 56]	1.69[b]	2.92	log p [a]: 1.46
CC1CSC(c2cccc(Nc3ncc(Br)c(NC4CCC4)n3)c2)S1 (stereo not drawn) [Example 165]			log p (pH 2.7): 3.49; log p (pH 7.8): 4.92
OCC1CSC(c2cccc(Nc3ncc(Cl)c(NC4CC4)n3)c2)S1 (stereo not drawn) [Example 160]			log p (pH 7.8): 2.72[c]
C=CCOCC1COC(c2cccc(Nc3ncc(C(F)(F)F)c(NC4CCC4)n3)c2)O1 (stereo not drawn) [Example 109]	3.84	4.35	
Brc1cnc(Nc2ccc(C3OCCCO3)cc2)nc1NC1CCC1 [Example 77]	2.2	3.61	
CCC1COC(c2cccc(Nc3ncc(Cl)c(NC4CC4)n3)c2)O1 (stereo not drawn) [Example 7]	2.29	3.48	
Clc1cnc(Nc2ccc(C3OCCCO3)cc2)nc1NC1CC1 [Example 135]			log p (pH 2.7): 1.72; log p (pH 7.8): 2.82
